Results taken from patent publication US10858688B2, “Observation method using binding and dissociation probe” (KYOTO UNIVERSITY, priority 2015, dated 2020).
Where no end group is shown, it is not given here.

Tests used:
microtubule [1] = assay: Localization test of probe candidates (integrated SiMS images); type: cell-based, Xenopus laevis; parameters: key: “localization” is positive (P) when above criterion (1) is met; settings: fixed, permeabilized XTC cell; lysate supernatant of EGFP fused probe; TIRF, 10000 frames
Protocol: (§1) HEK (Human embryonic kidney)-293F cells were transfected with a plasmid encoding a probe candidate protein tagged with FLAG-EGFP or 3×FLAG-EGFP. […] Centrifugal separation was performed on the lysate and the supernatant liquid was collected. In order to perform screening for a probe for IRIS, the binding capacity of a probe candidate in the supernatant liquid with respect to the structure of an XCT cell that was fixed with paraformaldehyde (PFA) and that received a permeabilization process was tested. The appearance and disappearance of single molecule speckles (Single-molecule speckles, SiMS) in the structure was tested. Screening was performed for a probe for IRIS in accordance with the following criteria:
(§2) (1) It is possible to confirm a distribution of target substances in the structure in an image resulting from adding SiMS images;
(§3) The localization test of the above (1), whose result is shown in table 1, was performed in the following procedures. First, the supernatant liquid of lysate of a cell that expressed each probe candidate was brought into contact with an XCT cell that was fixed on a coverglass and that received a permeabilization process. […] The obtained speckle images of 10000 frames were integrated so as to confirm whether or not a distribution of target substances in the cell (microtubule, intermediate filament, focal adhesion or actin filament) was able to be confirmed. When a distribution of a target substances was able to be confirmed, the result of the localization test was treated as P (positive).

microtubule [2] = assay: Measurement of binding half-life of probe-target complex; parameters: species or system Xenopus laevis; settings: fixed XTC cell, single exponential fit
Text: (§4) A probe and a target substance have the following binding characteristics. […] The above half-life herein is preferably a half-life of a probe-target complex formed by binding between a probe and a target substance in a case when a medium containing a probe and a sample containing a target substance that is to be observed are brought into contact under a condition for performing an imaging step. […] Measurement procedures for the half-life are as below. […] Ndissociation is a cumulative relative frequency of a probe that dissociated. A cumulative relative frequency is a ratio of the speckles that disappeared within a given period of time to the total number of measured speckles (i.e. probes) (i.e. probes that dissociated within a given period of time), and represents the total number as 1. Then, by fitting the above complementary cumulative relative frequency function with an exponent function, that half-life is calculated.
The measurement of binding half-life, whose result is shown in table 1, was performed in the following procedures. Speckle images of 10000 frames picked up in the localization test were used in order to measure a period of time between the appearance of a probe that has bound to a target in a speckle image and disappearance through dissociation in a semi-manual mode by using Speckle TrackerJ, an ImageJ plug-in. In case of for example picking up of images with an exposure time of 50 ms and at a frame rate of 20 Hz, it is assumed that a period of time between the appearance and disappearance of a speckle that is observed in only one of consecutive frames is 50 ms and a period of time between the appearance and disappearance of a speckle observed in only two consecutive frames is 100 ms. […] Ndissociation is a cumulative relative frequency of probes that dissociated. Then, by fitting the complementary cumulative relative frequency function with an exponent function, the half-life was calculated. However, the binding half-life with respect to an actin filament of Atto488-Lifeact was measured by using a method that is described in detail in the section for FIG. 9 in the Brief Description of the Drawings.

microtubule [3] = assay: Washability test of probe candidates; type: cell-based, Xenopus laevis; parameters: key: “washability” is positive (P) when above criterion (2) is met; settings: speckles equal to or less than about 10% after switching imaging solution 10 to 20 times
Protocol: (§5) (2) It is possible to wash and remove a probe after SiMS imaging (imaging step);
(§6) The […] of the above (2), whose result is shown in table 1, was performed in the following procedures. […] This switching of imaging solution was conducted slowly so that the observation position would not shift. Next, an imaging solution not containing a probe and not containing the active oxygen-scavenging mix was switched 10 to 20 times. After the switching, for confirmation, for an XCT cell sample in the observation chamber, speckle images of 10 frames were picked up under a similar condition to that of the localization test described in the previous paragraph, and when the number of speckles confirmed in the speckle images (i.e., the number of probes that had bound) became sufficiently smaller (equal to or less than about 10%) than the number of the speckles in the speckle images before the washing operation, washing was determined to be possible and the result was treated as P (positive).

microtubule [4] = assay: IRIS image test (reconstruction image); type: cell-based, Xenopus laevis; parameters: key: “IRIS image” is positive (P) when above criterion (3) is met; settings: reconstruction from 10000 frames with DAOSTORM
Protocol: (§7) […] It is possible to reconstruct an image of a target substance by integrating the central positions of the respective speckles. The IRIS image test of the above (3) whose result is described in table 1 was performed in the following procedures. By using all the speckle images of 10000 frames picked up in the localization test, the central point of a probe that has bound to a target in each frame of the speckle images was determined with nanometer accuracy by using DAOSTORM. By adding a large number of pieces of central point information in the fluorescence images of 10000 frames, a reconstruction image (observation image) was generated. Whether or not a distribution of a target molecule was able to be observed in that reconstruction image was determined, and when a distribution of a target molecule was observed, the result was treated as P (positive).

microtubule [5] = assay: Labeling patterns of microtubules in TIRF IRIS images; type: cell-based, Xenopus laevis; settings: for labeling of microtubule plus end (tip): when EB1 existed (cold methanol-preprocessed cells)
Text: FIG. 12 show labeling patterns of microtubules by a CLIP-170 fragment (amino acid residues 3-309 of sequence number 12), an APC fragment (amino acid residues 2536-2843 of sequence number 14), a MAP4 fragment (amino acid residues 1-908 of sequence number 4) and Tau isoform 3 (full length of sequence number 5). The patterns are different depending upon procedures for fixing cells. FIG. 12 (a) and FIG. 12 (b) show live-cell imaging during the fixation operation. In FIG. 12 (a), the accumulation of EB1-EGFP at the tips of microtubules disappeared in a process by 3.7% PFA and 0.5% Triton-X 100. In FIG. 12 (b), EB1-EGFP was fixed in a state in which it was accumulated at the tips of the microtubules in a process by cold methanol. […] With these probes, IRIS images of the entire microtubules were obtained. […] The microtubule tips were labeled strongly with a CLIP-170 fragment while they were weakly labeled with a MAP4 fragment and Tau isoform 3 (see merged images in the lower tier).
A plurality of IRIS probes for a microtubule and a focal adhesion visualized different sites of their structure bodies. […] The result corresponds to in-vitro data (document 26). Further, Paxillin and the Src fragment visualized different portions of focal adhesion (FIG. 13). Thus, IRIS can also be applied to mapping analysis of a site in which a plurality of protein fragments bind. Development of an IRIS probe that binds to a molecule in a specific state also makes it is possible to perform super-resolution mapping on the molecule in the specific state.

focal adhesion [6] = assay: Localization test of probe candidates (integrated SiMS images); type: cell-based, Xenopus laevis; parameters: key: “localization” is positive (P) when above criterion (1) is met; settings: fixed, permeabilized XTC cell; lysate supernatant of EGFP fused probe; TIRF, 10000 frames
Protocol: as §1, §2, §3

focal adhesion [7] = assay: Measurement of binding half-life of probe-target complex; parameters: species or system Xenopus laevis; settings: fixed XTC cell, single exponential fit
Text: as §4
The measurement of binding half-life, whose result is shown in table 1, was performed in the following procedures. […] Then, by fitting the complementary cumulative relative frequency function with an exponent function, the half-life was calculated. However, the binding half-life with respect to an actin filament of Atto488-Lifeact was measured by using a method that is described in detail in the section for FIG. 9 in the Brief Description of the Drawings.

focal adhesion [8] = assay: Washability test of probe candidates; type: cell-based, Xenopus laevis; parameters: key: “washability” is positive (P) when above criterion (2) is met; settings: speckles equal to or less than about 10% after switching imaging solution 10 to 20 times
Protocol: as §5, §6

focal adhesion [9] = assay: IRIS image test (reconstruction image); type: cell-based, Xenopus laevis; parameters: key: “IRIS image” is positive (P) when above criterion (3) is met; settings: reconstruction from 10000 frames with DAOSTORM
Protocol: as §7

actin filament = settings: document 10; cited from earlier work

Substance | LOCALIZATION (microtubule [1]) | HALF-LIFE (microtubule [2]) | WASHABILITY (microtubule [3]) | IRIS IMAGE (microtubule [4]) | labeling of microtubule (microtubule [5]; when EB1 did not exist (PFA and Triton-X 100)) | labeling of microtubule plus end (tip) (microtubule [5]) | LOCALIZATION (focal adhesion [6]) | HALF-LIFE (focal adhesion [7]) | WASHABILITY (focal adhesion [8]) | IRIS IMAGE (focal adhesion [9]) | time of being exchanged on an actin filament (actin filament)
APC 2781-2819: EGFP fused (N terminus) human APC fragment, amino acid residues 2781-2819 of sequence number 14 ({EGFP}-VTPFNYNPSPRKSSADSTSARPSQIPTPVNNNTKKRDSK; UniProt P25054 2781-2819, looked up, fragment) | P | 0.027 s | P | P |  |  |  |  |  |  | 
CLIP-170: EGFP fused (N terminus) rat CLIP-170 fragment, amino acid residues 3-309 of sequence number 12 | P | 0.044 s | P | P | continuously labeled the entire microtubule | strongly labeled |  |  |  |  | 
Paxillin 1-557: EGFP fused (N terminus) human Paxillin, full length 1-557 of sequence number 15 |  |  |  |  |  |  | P | 0.196 s | P | P | 
APC 2536-2843: EGFP fused (C terminus) human APC fragment, amino acid residues 2536-2843 of sequence number 14 | P | 0.1 s | P | P |  |  |  |  |  |  | 
MAP4 1-908: EGFP fused (N terminus) mouse MAP4 fragment, amino acid residues 1-908 of sequence number 4 | P | 0.109 s | P | P |  | weakly visualized |  |  |  |  | 
TAU ISOFORM 4: EGFP fused (N terminus) human Tau isoform 4, 1-352 of sequence number 6 | P | 0.06 s | P | P |  |  |  |  |  |  | 
TAU ISOFORM 3: EGFP fused (N terminus) human Tau isoform 3, full length 1-383 of sequence number 5 | P | 0.11 s | P | P |  | weakly visualized |  |  |  |  | 
Paxillin 54-557: EGFP fused (N terminus) human Paxillin fragment, residues 54-557 of sequence number 15 |  |  |  |  |  |  | P | 0.246 s | P | P | 
Lifeact: widely used actin marker; short peptide that stains an actin filament in a live cell or a fixed cell (document 10) (MGVADLIKKFESISKEE) |  |  |  |  |  |  |  |  |  |  | ≤ 0.4 s
